Test results as given in ChEMBL document CHEMBL6120971 (J Med Chem, 2024).
Active and inactive are the calls of the source. No cut-off for these calls is given here.

Tests used:
[1] = target: T1, Protein cereblon/Hepatocyte growth factor receptor (Homo sapiens, UniProt P08581+Q96SW2); assay: PROTAC activity at CRBN/c-MET in human MKN-45 cells assessed as induction of c-MET degradation at 6.25 nM incubated for 24 hrs by Western blot analysis; assay type: cell-based
Target sequence in this assay (P08581 25-1390 limits assumed): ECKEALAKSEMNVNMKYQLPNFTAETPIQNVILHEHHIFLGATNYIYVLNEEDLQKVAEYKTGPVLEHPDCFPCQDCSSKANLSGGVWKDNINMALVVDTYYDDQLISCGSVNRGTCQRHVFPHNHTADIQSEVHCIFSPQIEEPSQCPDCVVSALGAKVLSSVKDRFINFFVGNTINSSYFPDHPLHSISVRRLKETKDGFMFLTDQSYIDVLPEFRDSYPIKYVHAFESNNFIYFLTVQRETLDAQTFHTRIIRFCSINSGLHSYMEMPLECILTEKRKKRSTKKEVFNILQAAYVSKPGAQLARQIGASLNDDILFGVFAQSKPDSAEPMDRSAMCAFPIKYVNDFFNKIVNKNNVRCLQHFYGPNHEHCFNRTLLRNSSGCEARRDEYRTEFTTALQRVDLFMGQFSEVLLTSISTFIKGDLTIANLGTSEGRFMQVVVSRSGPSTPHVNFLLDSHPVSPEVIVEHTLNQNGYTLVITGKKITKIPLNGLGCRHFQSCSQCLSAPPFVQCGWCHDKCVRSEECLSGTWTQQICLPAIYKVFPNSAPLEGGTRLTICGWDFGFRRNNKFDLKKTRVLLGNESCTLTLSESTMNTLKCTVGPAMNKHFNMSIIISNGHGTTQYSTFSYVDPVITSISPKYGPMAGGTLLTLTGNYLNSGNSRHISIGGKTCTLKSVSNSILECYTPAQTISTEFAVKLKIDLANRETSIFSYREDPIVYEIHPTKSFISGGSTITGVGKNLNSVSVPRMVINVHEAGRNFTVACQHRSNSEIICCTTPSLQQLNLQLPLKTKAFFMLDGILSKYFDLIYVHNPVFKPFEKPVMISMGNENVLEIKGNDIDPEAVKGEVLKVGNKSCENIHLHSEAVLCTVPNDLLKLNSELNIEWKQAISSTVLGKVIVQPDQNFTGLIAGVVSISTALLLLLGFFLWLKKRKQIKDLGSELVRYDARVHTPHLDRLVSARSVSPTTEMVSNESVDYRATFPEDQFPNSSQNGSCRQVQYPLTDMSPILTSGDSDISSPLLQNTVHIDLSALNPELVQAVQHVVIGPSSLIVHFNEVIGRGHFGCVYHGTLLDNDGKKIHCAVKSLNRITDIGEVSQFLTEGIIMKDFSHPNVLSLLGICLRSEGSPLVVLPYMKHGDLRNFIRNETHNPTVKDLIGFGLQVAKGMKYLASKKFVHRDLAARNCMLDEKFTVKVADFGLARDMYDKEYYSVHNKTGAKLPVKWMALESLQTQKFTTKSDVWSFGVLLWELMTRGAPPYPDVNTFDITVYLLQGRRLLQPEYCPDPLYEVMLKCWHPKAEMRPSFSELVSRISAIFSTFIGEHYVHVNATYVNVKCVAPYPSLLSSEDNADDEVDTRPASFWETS
Target sequence in this assay (Q96SW2 whole entry partner): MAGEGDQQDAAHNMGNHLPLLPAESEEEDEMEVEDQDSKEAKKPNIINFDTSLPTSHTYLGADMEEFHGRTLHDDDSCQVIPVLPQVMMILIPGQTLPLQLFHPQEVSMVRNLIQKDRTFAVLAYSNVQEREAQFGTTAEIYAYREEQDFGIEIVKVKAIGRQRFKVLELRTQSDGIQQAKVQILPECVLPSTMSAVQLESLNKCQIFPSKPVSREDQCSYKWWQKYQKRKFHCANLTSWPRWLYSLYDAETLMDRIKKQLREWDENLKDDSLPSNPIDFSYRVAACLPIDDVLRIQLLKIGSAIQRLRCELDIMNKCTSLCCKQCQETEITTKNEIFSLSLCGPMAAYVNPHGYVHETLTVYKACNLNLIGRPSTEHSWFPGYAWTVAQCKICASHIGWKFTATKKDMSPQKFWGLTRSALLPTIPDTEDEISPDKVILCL

[2] = AUC (0 to infinity) in male Sprague-Dawley rat at 10 mg/kg, po measured after 24 hrs by LC-MS/MS analysis; assay type: ADME, organism-based; details: in vivo
[3] = Downregulation of c-MET protein level in human MKN-45 cells assessed as residual activity at 100 nM incubated for 24 hrs by MS-based quantitative proteomics analysis relative to control; assay type: functional
[4] = target: T1, Protein cereblon/Hepatocyte growth factor receptor; assay: PROTAC activity at CRBN/c-MET in human MKN-45 cells assessed as induction of c-MET degradation incubated for 24 hrs by Western blot analysis; assay type: cell-based
Target sequence in this assay (P08581 whole entry): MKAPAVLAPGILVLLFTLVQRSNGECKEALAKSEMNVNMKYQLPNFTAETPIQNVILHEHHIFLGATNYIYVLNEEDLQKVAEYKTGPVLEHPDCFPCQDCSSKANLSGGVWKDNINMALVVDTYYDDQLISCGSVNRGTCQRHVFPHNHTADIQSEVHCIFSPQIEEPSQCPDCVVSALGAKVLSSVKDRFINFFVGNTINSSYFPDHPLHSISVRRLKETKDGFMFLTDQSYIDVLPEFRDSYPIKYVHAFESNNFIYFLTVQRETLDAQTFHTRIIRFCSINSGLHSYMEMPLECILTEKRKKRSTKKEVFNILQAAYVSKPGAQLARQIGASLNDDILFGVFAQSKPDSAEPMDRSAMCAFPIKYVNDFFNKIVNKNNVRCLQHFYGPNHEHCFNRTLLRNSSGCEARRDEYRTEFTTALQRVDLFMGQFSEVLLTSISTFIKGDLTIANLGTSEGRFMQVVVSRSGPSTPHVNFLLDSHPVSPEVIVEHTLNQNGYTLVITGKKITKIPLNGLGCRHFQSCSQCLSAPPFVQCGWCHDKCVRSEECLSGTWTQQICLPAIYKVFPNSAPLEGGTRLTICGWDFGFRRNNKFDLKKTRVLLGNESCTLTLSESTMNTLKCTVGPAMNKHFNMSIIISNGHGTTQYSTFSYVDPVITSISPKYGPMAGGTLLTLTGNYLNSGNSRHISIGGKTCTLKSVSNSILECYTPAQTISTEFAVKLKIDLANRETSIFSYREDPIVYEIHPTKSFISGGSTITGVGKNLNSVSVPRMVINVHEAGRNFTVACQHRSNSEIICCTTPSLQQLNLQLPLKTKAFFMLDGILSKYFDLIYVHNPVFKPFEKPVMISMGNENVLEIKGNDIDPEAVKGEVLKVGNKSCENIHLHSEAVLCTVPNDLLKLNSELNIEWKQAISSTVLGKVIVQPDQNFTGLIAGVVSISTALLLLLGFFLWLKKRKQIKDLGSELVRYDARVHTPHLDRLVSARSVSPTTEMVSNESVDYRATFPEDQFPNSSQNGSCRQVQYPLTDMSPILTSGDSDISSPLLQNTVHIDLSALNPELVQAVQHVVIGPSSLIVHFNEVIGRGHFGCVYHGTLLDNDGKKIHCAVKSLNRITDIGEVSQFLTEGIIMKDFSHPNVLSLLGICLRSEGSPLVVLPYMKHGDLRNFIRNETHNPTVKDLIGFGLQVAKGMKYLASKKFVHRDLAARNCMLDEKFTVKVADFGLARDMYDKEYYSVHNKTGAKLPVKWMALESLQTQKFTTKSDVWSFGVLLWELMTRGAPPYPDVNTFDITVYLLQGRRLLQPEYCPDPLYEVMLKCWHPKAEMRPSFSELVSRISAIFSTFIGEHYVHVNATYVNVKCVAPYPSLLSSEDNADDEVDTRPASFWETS
Target sequence in this assay (Q96SW2 whole entry): as the sequence (Q96SW2 whole entry partner) above

[5] = Downregulation of c-MET protein level in human MKN-45 cells assessed as fold change at 100 nM incubated for 24 hrs by MS-based quantitative proteomics analysis relative to control; assay type: functional
[6] = tested on: MKN-45; assay: Upregulation of PDCD4 protein level in human MKN-45 cells at 100 nM incubated for 24 hrs by MS-based quantitative proteomics analysis; assay type: functional, cell-based
[7] = target: T1, Protein cereblon/Hepatocyte growth factor receptor; assay: PROTAC activity at CRBN/c-MET in human MKN-45 cells assessed as induction of c-MET degradation at 100 nM preincubated with pomalidomide for 2 hrs followed by compound addition and measured after 24 hrs by Western blot analysis; assay type: cell-based
Target sequence in this assay (P08581 25-1390 limits assumed): as the sequence (P08581 25-1390 limits assumed) above
Target sequence in this assay (Q96SW2 whole entry partner): as the sequence (Q96SW2 whole entry partner) above

[8] = tested on: Hs746T; assay: Inhibition of c-MET/Akt signaling pathway activation in human Hs746T cells at 12.5 to 200 nM incubated for 24 hrs by Western blot analysis; assay type: cell-based; details: dose 12.5-200 nM
[9] = tested on: Mus musculus; assay: Downregulation of c-MET protein level in BALB/c nude mouse liver xenografted with human MKN-45 cells at 10 mg/kg, po measured after 48 hrs by Western blot analysis; assay type: functional, organism-based
[10] = Half-life in male Sprague-Dawley rat at 10 mg/kg, iv measured after 24 hrs by LC-MS/MS analysis; assay type: ADME, organism-based; details: in vivo
[11] = target: T1, Protein cereblon/Hepatocyte growth factor receptor; assay: In vivo PROTAC activity at CRBN/c-MET in BALB/c nude mouse xenografted with human MKN-45 cells assessed as decrease in c-MET protein level in tumor at 10 to 40 mg/kg, po administered once daily for 21 days and measured after 24 hrs post last dose by Western blot analysis; assay type: functional, organism-based; details: dose 10-40 mg/kg, time 22.0 day
Target sequence in this assay (P08581 25-1390 limits assumed): as the sequence (P08581 25-1390 limits assumed) above
Target sequence in this assay (Q96SW2 whole entry partner): as the sequence (Q96SW2 whole entry partner) above

[12] = Toxicity in BALB/c nude mouse xenografted with human MKN-45 cells assessed as effect on heart morphology at 10 to 40 mg/kg, po administered once daily for 21 days by H and E staining based analysis; assay type: organism-based; details: in vivo, 504 h, dose 10-40 mg/kg, time 21 day
[13] = Toxicity in BALB/c nude mouse xenografted with human MKN-45 cells assessed as effect on lung morphology at 10 to 40 mg/kg, po administered once daily for 21 days by H and E staining based analysis; assay type: organism-based; details: in vivo, 504 h, dose 10-40 mg/kg, time 21 day
[14] = target: T1, Protein cereblon/Hepatocyte growth factor receptor; assay: PROTAC activity at CRBN/c-MET in human PC-3 cells assessed as induction of c-MET degradation at 12.5 to 100 nM incubated for 24 hrs by Western blot analysis; assay type: cell-based; details: dose 12.5-100 nM
Target sequence in this assay (P08581 25-1390 limits assumed): as the sequence (P08581 25-1390 limits assumed) above
Target sequence in this assay (Q96SW2 whole entry partner): as the sequence (Q96SW2 whole entry partner) above

[15] = tested on: MKN-45; assay: Downregulation of CHCHD2 protein level in human MKN-45 cells at 100 nM incubated for 24 hrs by MS-based quantitative proteomics analysis; assay type: functional, cell-based
[16] = tested on: Mus musculus; assay: Downregulation of c-MET protein level in BALB/c nude mouse stomach xenografted with human MKN-45 cells at 10 mg/kg, po measured after 48 hrs by Western blot analysis; assay type: functional, organism-based
[17] = Tmax in male Sprague-Dawley rat at 10 mg/kg, po measured after 24 hrs by LC-MS/MS analysis; assay type: ADME, organism-based; details: in vivo

Activity [1]: Active | AUC(0-inf) [2]: 411 ng·h/mL | DC50 [4]: 6.21 nM | Activity [7]: inactive | half-life [10]: 321 min | Activity [11]: Active | Activity [14]: inactive | Tmax [17]: 2 h
SMILES: O=C1CCC(N2C(=O)c3ccc(N4CCN(CC5CCN(C(=O)c6ccc(-c7cnc8ncc(Cc9ccc%10ncccc%10c9)n8n7)cc6F)CC5)CC4)cc3C2=O)C(=O)N1 (configuration not stated)
Activity [3]: 3.38% | fold change (FC) [5]: 29.6 | Activity [6]: Active | inhibition [8]: Active | Activity [9]: Not active; Favorable Tissue Specificity Of Compound Observed | Activity [12]: Non-toxic | Activity [13]: Non-toxic | Activity [15]: Active | Activity [16]: Not active; Favorable Tissue Specificity Of Compound Observed
